Test results published in patent publication US9062041B2 (Bayer Intellectual Property GmbH, priority 2011, dated 2015).

Tests used:
Format in all cases: cell-based
[1] = target: EP2 subtype of the human PGE2 receptor (Homo sapiens, UniProt P43116); test: cAMP antagonism test on the human EP2 receptor (HTRF cAMP detection); details: hEP2 receptor, read-out: Antagonism hEP2 IC50
How it was run: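 Cells expressing human EP2 preincubated 20 min at RT with compound (0.8 nM–16.5 μM), then stimulated 60 min with PGE2 (3× solution 1.5 nM) in PBS-IBMX. After 20 min lysis, cAMP measured by competitive HTRF with cAMP-d2 and Eu cryptate anti-cAMP antibody (665/620 nm ratio).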

[2] = target: EP4 subtype of the human PGE2 receptor (Homo sapiens, UniProt P35408); test: cAMP antagonism test on the human EP4 receptor (HTRF cAMP detection); details: selectivity towards hEP4, IC50 measured by cAMP antagonism test
Chain of EP4 subtype of the human PGE2 receptor (P35408 whole entry): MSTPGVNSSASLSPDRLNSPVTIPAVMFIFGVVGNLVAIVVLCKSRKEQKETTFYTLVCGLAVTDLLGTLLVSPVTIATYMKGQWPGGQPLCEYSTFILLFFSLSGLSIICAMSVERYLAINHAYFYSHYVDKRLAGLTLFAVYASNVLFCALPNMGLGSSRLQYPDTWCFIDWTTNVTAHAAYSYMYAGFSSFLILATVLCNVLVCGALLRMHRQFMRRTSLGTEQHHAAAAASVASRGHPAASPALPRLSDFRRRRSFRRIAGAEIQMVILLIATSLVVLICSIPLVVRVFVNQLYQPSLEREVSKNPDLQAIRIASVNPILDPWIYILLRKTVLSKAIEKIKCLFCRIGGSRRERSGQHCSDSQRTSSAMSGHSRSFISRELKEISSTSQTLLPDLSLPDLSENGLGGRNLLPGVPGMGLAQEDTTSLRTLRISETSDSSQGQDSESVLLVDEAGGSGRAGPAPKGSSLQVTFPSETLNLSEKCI
How it was run: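 Cells expressing human EP4 preincubated 20 min at RT with compound (0.8 nM–16.5 μM), then stimulated with PGE2 (0.3 nM in 3× solution, with IBMX) 60 min at RT. After lysis, cAMP measured by HTRF competition (665/620 nm ratio); antagonism seen as rise in FRET signal.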

[3] = target: T1, human PGD receptor (Homo sapiens, UniProt Q13258); test: cAMP antagonism test on the human prostaglandin D receptor (HTRF cAMP detection); details: selectivity towards hDP, IC50 measured by cAMP antagonism test
T1 sequence (Q13258 1-359): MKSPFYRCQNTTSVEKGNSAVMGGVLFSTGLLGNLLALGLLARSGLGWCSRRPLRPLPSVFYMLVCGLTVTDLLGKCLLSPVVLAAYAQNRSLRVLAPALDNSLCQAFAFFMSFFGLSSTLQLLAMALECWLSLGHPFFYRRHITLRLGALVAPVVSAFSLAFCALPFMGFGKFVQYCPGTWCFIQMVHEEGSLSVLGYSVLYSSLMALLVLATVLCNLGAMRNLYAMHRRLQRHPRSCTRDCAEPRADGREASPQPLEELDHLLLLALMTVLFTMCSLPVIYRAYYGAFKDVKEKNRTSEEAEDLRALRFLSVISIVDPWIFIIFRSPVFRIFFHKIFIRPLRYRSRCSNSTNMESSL
How it was run: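 Cells pre-mixed with cAMP-d2 were preincubated with compound (0.8 nM–16.5 μM) for 20 min at RT, then stimulated with 3× PGD2 solution (6 nM, in PBS-IBMX) for 30 min at RT. After lysis (20 min), HTRF read at 665/620 nm; antagonism seen as rise in FRET ratio.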

Chain of EP2 subtype of the human PGE2 receptor (P43116 whole entry): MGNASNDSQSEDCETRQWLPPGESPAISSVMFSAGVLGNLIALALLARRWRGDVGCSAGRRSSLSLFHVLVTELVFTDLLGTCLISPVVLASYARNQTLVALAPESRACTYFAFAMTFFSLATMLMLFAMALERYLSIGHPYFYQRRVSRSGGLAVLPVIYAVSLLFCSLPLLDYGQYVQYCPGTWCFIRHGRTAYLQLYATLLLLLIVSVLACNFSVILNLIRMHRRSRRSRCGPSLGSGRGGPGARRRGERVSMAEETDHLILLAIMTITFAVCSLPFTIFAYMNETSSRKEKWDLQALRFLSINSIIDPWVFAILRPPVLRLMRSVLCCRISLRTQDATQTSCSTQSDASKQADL

IC50 [1] [nM]	Selectivity hEP2/hEP4 [2]	Selectivity hEP2/hDP [3]	Structure (SMILES)
3.18	xxx (xxx > 100)	xxx (xxx > 100)	COCCNC(=O)c1ccc2nn(CC3CCN(C(=O)c4ccc(-c5ccccc5C)cc4)CC3)cc2c1C [Example 50, N-(2-methoxyethyl)-4-methyl-2-({1-[(2′-methylbiphenyl-4-yl)carbonyl]piperidin-4-yl}methyl)-2H-indazol-5-carboxamide]
60	xxx (xxx > 100)	xxx (xxx > 100)	COCCNC(=O)c1ccc2nn(CC3CCN(C(=O)c4ccc(Oc5ccncc5)cc4)CC3)cc2c1C [Example 51, N-(2-methoxyethyl)-4-methyl-2-({1-[4-(pyridyloxy)benzoyl]piperidin-4-yl}-methyl)-2H-indazol-5-carboxamide]
830	xx (xx: 10-100)	xx (xx: 10-100)	COCCNC(=O)c1ccc2nn(CC3CCN(C(=O)c4ccc(-n5cnnc5)cc4)CC3)cc2c1C [Example 52, N-(2-methoxyethyl)-4-methyl-2-((1-[4-(4H-1,2,4-triazol-4-yl)benzoyl]piperidin-4-yl}methyl)-2H-indazol-5-carboxamide]
44.2	xxx (xxx > 100)	xxx (xxx > 100)	COCCNC(=O)c1ccc2nn(CC3CCN(C(=O)c4ccc(N5CCOCC5)cc4F)CC3)cc2c1C [Example 53, 2-{[1-(2-fluoro-4-morpholinobenzoyl)-piperidin-4-yl]-methyl}-N-(2-methoxyethyl)-4-methyl-2H-indazol-5-carboxamide]
4.74	xxx (xxx > 100)	xxx (xxx > 100)	COCCNC(=O)c1ccc2nn(CC3CCN(C(=O)c4ccc(Br)cc4)CC3)cc2c1C [Example 54, 2-{[1-(4-bromo-benzoyl)piperidin-4-yl]methyl}-N-(2-methoxyethyl)-4-methyl-2H-indazol-5-carboxamide]
9.67	xxx (xxx > 100)	xxx (xxx > 100)	COCCNC(=O)c1ccc2nn(CC3CCN(C(=O)c4ccc(OC(F)(F)F)cc4)CC3)cc2c1C [Example 55, N-(2-methoxyethyl)-4-methyl-2-({1-[4-(trifluoromethoxy)benzoyl]piperidin-4-yl}methyl)-2H-indazol-5-carboxamide]
5.29	xxx (xxx > 100)	xxx (xxx > 100)	COCCNC(=O)c1ccc2nn(CC3CCN(C(=O)c4ccc(SC(F)(F)F)cc4)CC3)cc2c1C [Example 57, N-(2-methoxyethyl)-4-methyl-2-[(1-{4-[(trifluoromethyl)sulphanyl]benzoyl}piperidin-4-yl)methyl]-2H-indazol-5-carboxamide]
1080	xx (xx: 10-100)	xx (xx: 10-100)	Cc1c(C(=O)NCCN2CCOCC2)ccc2nn(CC3CCN(C(=O)c4ccc(C(F)(F)F)cc4F)CC3)cc12 [Example 58, 2-({1-[2-fluoro-4-(trifluoromethyl)benzoyl]piperidin-4-yl}methyl)-4-methyl-N-(2-morpholinoethyl)-2H-indazol-5-carboxamide]
758	xx (xx: 10-100)	xx (xx: 10-100)	Cc1c(C(=O)NCCN2CCOCC2)ccc2nn(CC3CCN(C(=O)c4ccc(OC(F)(F)F)cc4)CC3)cc12 [Example 59, 4-methyl-N-(2-morpholinoethyl)-2-({1-[4-(trifluoromethoxy)benzoyl]piperidin-4-yl}methyl)-2H-indazol-5-carboxamide]
175	xx (xx: 10-100)	xx (xx: 10-100)	Cc1c(C(=O)NCCN2CCOCC2)ccc2nn(CC3CCN(C(=O)c4ccc(S(F)(F)(F)(F)F)cc4)CC3)cc12 [Example 60, 4-methyl-N-(2-morpholinoethyl)-2-({1-[4-(pentafluoro-λ^6-sulphanyl)benzoyl]-piperidin-4-yl}methyl)-2H-indazol-5-carboxamide]
1500	xx (xx: 10-100)	xx (xx: 10-100)	Cc1c(C(=O)NCCN2CCOCC2)ccc2nn(CC3CCN(C(=O)c4cccc(OC(F)(F)F)c4)CC3)cc12 [Example 61, 4-methyl-N-(2-morpholinoethyl)-2-({1-[3-(trifluoromethoxy)benzoyl]piperidin-4-yl}methyl)-2H-indazol-5-carboxamide]
674	xx (xx: 10-100)	xx (xx: 10-100)	Cc1c(C(=O)NCCN2CCOCC2)ccc2nn(CC3CCN(C(=O)c4ccc(Cl)cc4)CC3)cc12 [Example 62, 2-{[1-(4-chlorobenzoyl)piperidin-4-yl]methyl}-4-methyl-N-(2-morpholinoethyl)-2H-indazol-5-carboxamide]
1440	xx (xx: 10-100)	xx (xx: 10-100)	Cc1c(C(=O)NCCN2CCOCC2)ccc2nn(CC3CCN(C(=O)c4ccc(C(F)(F)F)cc4)CC3)cc12 [Example 63, 4-methyl-N-(2-morpholinoethyl)-2-({1-[4-(trifluoromethyl)benzoyl]piperidin-4-yl}methyl)-2H-indazol-5-carboxamide]
4130	x (x: 1-10)	x (x: 1-10)	Cc1c(C(=O)NCCN2CCOCC2)ccc2nn(CC3CCN(C(=O)c4cccc(S(F)(F)(F)(F)F)c4)CC3)cc12 [Example 64]
2790	x (x: 1-10)	x (x: 1-10)	Cc1c(C(=O)NCCN2CCOCC2)ccc2nn(CC3CCN(C(=O)c4cccc(C(F)(F)F)c4)CC3)cc12 [Example 65, 4-methyl-N-(2-morpholinoethyl)-2-({1-[3-(trifluoromethyl)benzoyl]piperidin-4-yl}methyl)-2H-indazol-5-carboxamide]
321	xx (xx: 10-100)	xx (xx: 10-100)	Cc1c(C(=O)NCCN2CCOCC2)ccc2nn(CC3CCN(C(=O)c4ccc(-c5ccc(F)cc5)cc4)CC3)cc12 [Example 66, 2-({1-[(4′-fluoro-biphenyl-4-yl)-carbonyl]piperidin-4-yl}methyl)-4-methyl-N-(2-morpholino-ethyl)-2H-indazol-5-carboxamide]
405	xx (xx: 10-100)	xx (xx: 10-100)	Cc1c(C(=O)NCCN2CCOCC2)ccc2nn(CC3CCN(C(=O)c4ccc(Oc5ccc(F)cc5)cc4)CC3)cc12 [Example 67, 2-({1-[4-(4-fluoro-phenoxy)benzoyl]-piperidin-4-yl}-methyl)-4-methyl-N-(2-morpholinoethyl)-2H-indazol-5-carboxamide]
17.7	xxx (xxx > 100)	xxx (xxx > 100)	Cc1c(C(=O)NCCN2CCC(F)(F)C2)ccc2nn(CC3CCN(C(=O)c4ccc(S(F)(F)(F)(F)F)cc4)CC3)cc12 [Example 68, N-[2-(3,3-difluoropyrrolidin-1-yl)ethyl]-4-methyl-2-({1-[4-(pentafluoro-λ^6-sulphanyl)benzoyl]piperidin-4-yl}methyl)-2H-indazol-5-carboxamide]
